In one assay the test system is HDV. The experiment in a line: HDV infection of HepG2-NTCP cells, viral RNA by RT-qPCR. The note with it: 288 h, 800 GE/cell, viral RNA at day 12 post infection, 50% reduction relative to DMSO controls, read-out: Cellular EC50. The format is cell-based. On the procedure: (§1) HepG2-NTCP A3 cells were maintained in DMEM media supplemented with GlutaMAX™, 10% fetal bovine serum, 1% penicillin/streptomycin, and 5 ug/mL puromycin at 37° C. in a humidified atmosphere with 5% CO2 in a collagen-coated tissue culture flask.
HDV virus collected from the supernatants of HuH7-END cells was purified in the presence of 6% polyethylene glycol (PEG). Viral titer was then quantified by RT-qPCR using HDV specific primers against a reference standard. For HDV infection, HepG2-NTCP cells were seeded in 96-well plates at 60,000 cells/well. On the day of infection, compounds were 4-fold serially diluted in DMSO and pre-incubated with HepG2-NTCP cells for two hours before infecting with 800 GE/cell of HDV in 4% PEG. On day one post infection, HDV-containing media was aspirated, cells were washed once with PBS and then maintained in 2.5% DMSO containing media for the remainder of the assay. Viral RNA was isolated using RNeasy kits (Qiagen) at day 12 post infection and reverse transcribed into cDNA using High-Capacity RNA-to-cDNA Kit (Thermo Fisher). Relative HDV gene expression was quantified by RT-qPCR after normalization to expression of a housekeeping gene. Irrespective of readout, compound concentrations that reduce viral RNA by 50% relative to DMSO controls (EC50) are reported. EC50 ranges are as follows: A<0.1 µM; B 0.1-1 µM; C>1 µM.
For orientation: Real-time PCR tracks product formation cycle by cycle.
By EC50 is commonly meant the concentration at which the effect is half-maximal. Consider `CN1[C@H](C2CCC2)CN(c2ccccc2)c2cc3c(cc2S1(=O)=O)-c1cc(C(=O)O)ccc1CO3` [Example 1, (R)-10-cyclobutyl-11-methyl-8-phenyl-8,9,10,11-tetrahydro-5H-benzo[3,4]chromeno[7,6-f][1,2,5]thiadiazepine-2-carboxylic acid 12,12-dioxide], for which the EC50 is below 100 nM.

The next assay concerns HBV. The assay is described as follows: HBV infection of HepG2-NTCP cells, HBeAg AlphaLISA readout. The conditions noted are these: Hepatitis B virus, 192 h, 2000 GE/cell, HBeAg in supernatant at day 8 post infection, 50% reduction relative to DMSO controls, read-out: Cellular EC50. Format: cell-based. On the procedure: as §1
HepG2-NTCP cells were seeded in 384 well plate containing 16,000 cells/well two days prior to the infection. On the day of infection, compounds were 3-fold serially diluted in DMSO and pre-incubated with HepG2-NTCP cells for two hours before purified HBV addition. HBV infection was carried out at 2000 GE/cell with 4% PEG, and the final concentration of DMSO is 0.5%. On day one post infection, HBV-containing media was aspirated, cells were washed once with PBS and then maintained in 2.5% DMSO containing media for the remainder of the assay.
Supernatants from infected HepG2-NTCP cells were collected at day 8 post infection, and the amount of viral antigen HBeAg was measured by HBeAg AlphaLISA detection kit (PerkinElmer) following the manufacturer's recommended protocol. Irrespective of readout, compound concentrations that reduce viral product accumulation in supernatants by 50% relative to DMSO controls (EC50) are reported. EC50 ranges are as follows: A<0.1 µM; B 0.1-1 µM; C>1 µM.
For orientation: Bead proximity is the source of the signal in Alpha formats.
As to `CN1[C@H](C2CCC2)CN(c2ccccc2)c2cc3c(cc2S1(=O)=O)-c1cc(C(=O)O)ccc1CO3` [Example 1, (R)-10-cyclobutyl-11-methyl-8-phenyl-8,9,10,11-tetrahydro-5H-benzo[3,4]chromeno[7,6-f][1,2,5]thiadiazepine-2-carboxylic acid 12,12-dioxide], the concentration giving a half-maximal response (EC50) lay within 100 to 1000 nM. The same measure, in the same setting: then `CCCC[C@@H]1CN(c2ccccc2)c2cc3oc4ccc(C(=O)O)cc4c3cc2S(=O)(=O)N1C` [Example 34, (R)-3-butyl-2-methyl-5-phenyl-2,3,4,5-tetrahydrobenzo[2,3]benzofuro[6,5-f][1,2,5]thiadiazepine-10-carboxylic acid 1,1-dioxide], with 100 to 1000 nM; and `CCCC[C@@H]1CN(c2ccccc2)c2cc3c(cc2S(=O)(=O)N1C)-c1cc(C(=O)O)ccc1OCCO3` [Example 35, (R)-12-butyl-13-methyl-10-phenyl-6,7,10,11,12,13-hexahydrobenzo[7′,8′][1,4]dioxocino[6′,5′:4,5]benzo[1,2-f][1,2,5]thiadiazepine-2-carboxylic acid 14,14-dioxide], with 100 to 1000 nM. Regarding `CN1[C@H](C2CCC2)CN(c2ccccc2)c2cc3c(cc2S1(=O)=O)-c1sc(C(=O)O)cc1CO3` [Example 36, (R)-9-cyclobutyl-10-methyl-7-phenyl-7,8,9,10-tetrahydro-4H-thieno[3′,2′:3,4]chromeno[7,6-f][1,2,5]thiadiazepine-2-carboxylic acid 11,11-dioxide], the EC50 was below 100 nM. On the same count and under the same terms, as for `CCCN1C[C@@H](CC(C)C)N(C)S(=O)(=O)c2cc3c(cc21)OCc1c-3cc(C(=O)O)c(F)c1F` [Example 37], the figure is below 100 nM; as for `CC(C)C[C@@H]1CN(C2CC3(CCC3)C2)c2cc3c(cc2S(=O)(=O)N1C)-c1cc(C(=O)O)c(F)c(F)c1CO3` [Example 38], below 100 nM. For the compound `CC(C)C[C@@H]1CN(C2CCC2)c2cc3c(cc2S(=O)(=O)N1C)-c1cc(C(=O)O)c(F)c(F)c1CO3` [Example 39], the EC50 lay within 100 to 1000 nM. Still for that read-out and setting: as for `COC(C)(C)CN1C[C@@H](CC(C)C)N(C)S(=O)(=O)c2cc3c(cc21)OCc1c-3cc(C(=O)O)c(F)c1F` [Example 40], the figure is 100 to 1000 nM.

Source of the values: patent US20240325409A1, “Fused Heterotetracyclic Antiviral Agents” (Enanta Pharmaceuticals, Inc., priority 2023, published 2024).
